Where a name gives a salt, the structure may show the parent alone.
Columns and labels:
gerbils = test: [Sar^9, Met(O2)^11]substance P-induced tapping test; type: in vivo; details: Meriones unguiculatus, at 0.3mg/kg scoring
Procedure: More specifically, gerbils are lightly anesthetized with ether and the skull surface is exposed. […] Following injection, gerbils are placed in 1 L beaker individually and monitored for repetitive hind paw tapping. Some compounds prepared in the following Examples were tested in accordance with these testing methods.

Ca^2+ channel = molecular target: T1, Ca^2+ channel (Rattus norvegicus, UniProt P22002); test: verapamil binding study in rat heart membrane preparation; details: [^3H]desmethoxyverapamil binding
T1 construct: from tissue; host or cells: rat heart membrane preparation
T1 sequence (P22002 whole entry, other chains not shown): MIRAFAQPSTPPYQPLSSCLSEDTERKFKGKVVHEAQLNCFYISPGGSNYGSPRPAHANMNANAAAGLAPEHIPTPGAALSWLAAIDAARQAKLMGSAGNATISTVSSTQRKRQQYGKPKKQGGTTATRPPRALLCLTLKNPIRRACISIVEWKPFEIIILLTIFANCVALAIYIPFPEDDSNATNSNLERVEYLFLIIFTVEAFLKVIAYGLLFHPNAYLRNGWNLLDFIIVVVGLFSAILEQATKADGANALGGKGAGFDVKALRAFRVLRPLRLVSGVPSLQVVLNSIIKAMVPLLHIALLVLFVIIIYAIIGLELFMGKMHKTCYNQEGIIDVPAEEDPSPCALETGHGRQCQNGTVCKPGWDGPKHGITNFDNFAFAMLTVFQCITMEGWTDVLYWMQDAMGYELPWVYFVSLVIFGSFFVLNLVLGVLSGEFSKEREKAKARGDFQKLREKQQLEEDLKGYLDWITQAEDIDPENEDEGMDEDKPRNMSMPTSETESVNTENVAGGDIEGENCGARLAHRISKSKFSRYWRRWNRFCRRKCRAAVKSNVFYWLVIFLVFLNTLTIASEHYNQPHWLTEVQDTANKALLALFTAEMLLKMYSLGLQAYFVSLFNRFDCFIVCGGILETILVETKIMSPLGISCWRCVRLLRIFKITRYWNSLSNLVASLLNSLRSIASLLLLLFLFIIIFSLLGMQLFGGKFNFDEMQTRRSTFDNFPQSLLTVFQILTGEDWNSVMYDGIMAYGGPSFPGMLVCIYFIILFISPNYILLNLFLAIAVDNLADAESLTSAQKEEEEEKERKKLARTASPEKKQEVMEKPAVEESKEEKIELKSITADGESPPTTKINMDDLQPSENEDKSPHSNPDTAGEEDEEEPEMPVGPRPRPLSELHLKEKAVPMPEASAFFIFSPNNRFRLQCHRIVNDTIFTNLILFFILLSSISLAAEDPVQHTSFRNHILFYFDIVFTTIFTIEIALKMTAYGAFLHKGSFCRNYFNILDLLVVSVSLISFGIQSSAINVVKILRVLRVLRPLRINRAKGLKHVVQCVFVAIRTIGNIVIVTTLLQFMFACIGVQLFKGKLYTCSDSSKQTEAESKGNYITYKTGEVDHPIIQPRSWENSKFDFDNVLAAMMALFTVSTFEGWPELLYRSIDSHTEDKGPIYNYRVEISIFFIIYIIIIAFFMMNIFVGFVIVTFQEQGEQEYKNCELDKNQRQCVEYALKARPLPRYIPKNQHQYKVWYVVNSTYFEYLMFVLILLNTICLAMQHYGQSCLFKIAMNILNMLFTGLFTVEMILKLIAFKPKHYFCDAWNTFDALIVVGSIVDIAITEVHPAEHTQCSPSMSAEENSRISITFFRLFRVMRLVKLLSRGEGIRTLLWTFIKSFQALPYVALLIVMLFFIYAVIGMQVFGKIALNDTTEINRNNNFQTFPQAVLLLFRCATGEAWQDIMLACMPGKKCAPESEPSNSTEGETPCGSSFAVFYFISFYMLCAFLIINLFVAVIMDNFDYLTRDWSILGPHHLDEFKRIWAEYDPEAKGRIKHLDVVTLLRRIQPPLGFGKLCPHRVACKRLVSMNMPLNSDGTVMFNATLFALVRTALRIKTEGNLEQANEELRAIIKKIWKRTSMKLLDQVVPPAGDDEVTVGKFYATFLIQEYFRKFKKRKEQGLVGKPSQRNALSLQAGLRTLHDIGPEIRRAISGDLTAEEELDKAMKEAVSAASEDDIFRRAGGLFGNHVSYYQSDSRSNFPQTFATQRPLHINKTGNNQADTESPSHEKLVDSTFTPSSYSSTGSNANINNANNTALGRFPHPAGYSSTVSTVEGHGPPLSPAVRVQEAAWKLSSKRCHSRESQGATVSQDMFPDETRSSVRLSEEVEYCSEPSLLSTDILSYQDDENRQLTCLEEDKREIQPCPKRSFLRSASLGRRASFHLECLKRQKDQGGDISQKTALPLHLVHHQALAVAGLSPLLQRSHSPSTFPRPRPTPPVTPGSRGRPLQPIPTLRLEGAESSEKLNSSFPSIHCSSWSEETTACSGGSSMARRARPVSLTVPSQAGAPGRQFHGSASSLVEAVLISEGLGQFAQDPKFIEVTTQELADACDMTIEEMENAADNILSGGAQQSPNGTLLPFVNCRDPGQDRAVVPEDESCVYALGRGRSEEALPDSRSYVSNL
T1 sequence (P54290 25-944 partner limits assumed, other chains not shown): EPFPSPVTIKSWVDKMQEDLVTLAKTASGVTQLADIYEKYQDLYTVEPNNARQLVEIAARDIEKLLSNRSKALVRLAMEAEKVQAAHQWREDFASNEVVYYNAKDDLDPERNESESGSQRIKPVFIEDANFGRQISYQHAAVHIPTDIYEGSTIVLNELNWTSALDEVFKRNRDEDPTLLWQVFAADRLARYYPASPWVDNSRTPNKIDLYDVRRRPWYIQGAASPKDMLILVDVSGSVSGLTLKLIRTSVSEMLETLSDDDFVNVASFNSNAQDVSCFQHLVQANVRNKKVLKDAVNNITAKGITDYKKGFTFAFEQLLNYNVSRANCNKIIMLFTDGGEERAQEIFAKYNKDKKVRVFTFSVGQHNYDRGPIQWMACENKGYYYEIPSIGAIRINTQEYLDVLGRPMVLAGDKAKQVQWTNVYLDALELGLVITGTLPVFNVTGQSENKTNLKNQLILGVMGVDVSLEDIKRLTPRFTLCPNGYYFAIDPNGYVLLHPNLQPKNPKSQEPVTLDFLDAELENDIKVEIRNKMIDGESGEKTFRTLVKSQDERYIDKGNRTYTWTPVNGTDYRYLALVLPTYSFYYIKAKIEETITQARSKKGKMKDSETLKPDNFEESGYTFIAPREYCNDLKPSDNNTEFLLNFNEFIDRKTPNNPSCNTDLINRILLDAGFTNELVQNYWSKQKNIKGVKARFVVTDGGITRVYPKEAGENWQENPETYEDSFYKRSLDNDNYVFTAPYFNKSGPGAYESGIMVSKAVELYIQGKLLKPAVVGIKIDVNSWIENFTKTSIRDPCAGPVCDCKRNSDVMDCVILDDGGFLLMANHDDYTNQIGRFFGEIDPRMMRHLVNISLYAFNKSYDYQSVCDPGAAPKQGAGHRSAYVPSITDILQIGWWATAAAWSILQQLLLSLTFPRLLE
T1 sequence (P54290 945-1091 partner limits assumed, other chains not shown): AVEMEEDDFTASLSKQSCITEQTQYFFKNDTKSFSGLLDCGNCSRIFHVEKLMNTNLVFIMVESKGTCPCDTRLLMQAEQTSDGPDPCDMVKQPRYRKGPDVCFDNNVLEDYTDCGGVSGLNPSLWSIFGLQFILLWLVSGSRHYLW
Procedure: The adverse effect on Ca^2+ channel binding affinity is determined by verapamil binding study in rat heart membrane preparation. More specifically, verapamil binding study is performed as previously described by Reynolds et al, J. Pharmacol. Exp. Ther., 237, 731 (1986). Briefly, incubations are initiated by the addition of tissue to tubes containing 0.25 nM [^3H]desmethoxyverapamil and various concentrations of compounds (total volume 1 ml). Nonspecific binding is defined as radioligand binding remaining in the presence of 3-10 µM methoxyverapamil.

[1] = molecular target: T2, substance P receptor sites in IM-9 cells (Homo sapiens, UniProt P25103); test: IM-9 binding assay (inhibition of [^3H]SP binding); details: inhibition of [^3H]SP binding to human IM-9 cells
T2 construct: endogenous in cells; host or cells: human IM-9 cells
T2 sequence (P25103 whole entry): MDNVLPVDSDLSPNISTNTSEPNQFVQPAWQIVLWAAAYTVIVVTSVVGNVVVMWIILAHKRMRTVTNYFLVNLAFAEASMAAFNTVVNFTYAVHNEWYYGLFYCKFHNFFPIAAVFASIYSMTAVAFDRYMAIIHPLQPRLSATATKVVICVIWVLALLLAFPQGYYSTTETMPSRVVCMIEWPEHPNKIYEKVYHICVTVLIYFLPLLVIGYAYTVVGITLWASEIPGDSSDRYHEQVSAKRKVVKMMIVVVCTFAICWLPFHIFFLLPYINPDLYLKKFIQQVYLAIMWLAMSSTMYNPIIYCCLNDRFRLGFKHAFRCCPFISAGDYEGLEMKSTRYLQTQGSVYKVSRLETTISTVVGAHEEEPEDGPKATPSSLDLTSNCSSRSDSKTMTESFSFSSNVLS
Procedure: The activity of the compounds of the present invention, as substance P antagonists, is determined by their ability to inhibit the binding of substance P at its receptor sites in IM-9 cells employing radioactive ligands. The substance P antagonist activity of the herein described compounds is evaluated by using the standard assay procedure described by D. G. Payan et al as reported in J. Immunology, 133, 3260 (1984). This method essentially involves determining the concentration of the individual compound required to reduce by 50% the amount of radiolabeled substance P ligands at their receptor sites in said isolated cow tissues or IM-9 cells, thereby affording characteristic IC50 values for each compound tested. More specifically, inhibition of [^3H]SP binding to human IM-9 cells by compounds are determined in assay buffer (50 mM Tris-HCl (pH 7.4), 1 mM MnCl2, 0.02 % bovine serum albumin, bacitracin (40 µg/ml), leupeptin (4 µg/ml), chymostatin (2 µg/ml) and phosphoramidon (30 µg/ml)). The reaction is initiated by the addition of cells to assay buffer containing 0.56 nM [^3H]SP and various concentrations of compounds (total volume; 0.5 ml) and allowed to incubate for 120 min at 4 °C. […] Nonspecific binding is defined as the radioactivity remaining in the presence of 1 µM SP. The filters are placed into tubes and counted using liquid scintillation counter.

IC50 (Ca^2+ channel): > 3 µM
IC50 [1]: < 0.0001 µM
SMILES: COc1cc2c(cc1CN[C@H]1CCCN[C@H]1c1ccccc1)N(C)C(=O)CC2 [Compound 21, (2S,3S)-3-(6-Methoxy-1-methyl-2-oxo-1,2,3,4-tetrahydroquinolin-7-yl)methylamino-2-phenylpiperidine dihydrochloride]
inhibition at 0.3 mg/kg (gerbils): 52%
